Results on one compound are retold here after US7304037B2, “Cytostatic conjugates with integrin ligands” (priority 2001, dated 2007).

pIC50: −log10 of the molar value.

The term pIC50 denotes −log10 of the IC50, conventionally taken in molar units.

Series [1] relates to B16F10 mouse melanoma cell line. Type of series: cell-based. As to the method:
(§1) The human large intestine cell lines SW 480 and HT29 (ATCC No. CCL 228) and HTB38 and the mouse melanoma cell line B16F10 (CRL 6475) were grown to confluence in Roux dishes in seromed® RPMI 1640 medium (from Biochrom KG, Berlin) with addition of 10% FCS. They were then trypsinized and taken up in RPMI plus 10% FCS to a cell count of 50,000 cells or, for B16F10, 20,000 cells per mL. 100 μL of cell suspension per well were added to a 96 microwell plate and incubated at 37° C. for 1 day in a CO2 incubator. A further 100 μL of RPMI medium and 1 μL of DMSO were then added with the test substances. The growth was checked after day 6. For this purpose, 25 μL of MTT solution (3-(4,5-dimethylthiazol-2-yl)-2,5-diphenyltetrazolium bromide) were added to each well at a starting concentration of 5 mg/mL of water. The plate was incubated at 37° C. for 5 hours in a CO2 incubator. The medium was then aspirated and 100 1L of i-propanol/well were added. After shaking with 100 μL of water for 30 min, the extinction was measured at 595 nm using a Multiplate Reader (BIO-RAD 3550-UV).
(§2) The cytostatic action is indicated in Table 3 as an IC50 value, in each case for the individual cell lines.

Series [2] relates to HT29 human large intestine cell line. Type of series: cell-based. As to the method:
as §1, §2

Series [3] relates to SW480 human large intestine cell line. The series is classed as cell-based. As to the method: as §1, §2
Series [4] has as its system breast cancer model (MX-1). The source says:
(§3) In all in-vivo experiments for investigating the inhibition of tumour growth, athymic nude mice (NMRI nu/nu strain) were used. The tumour was developed by serial passage in nude mice, The human origin of the tumour was confirmed by isoenzymatic and immunohistochemical methods.
(§4) The tumour was implanted subcutaneously in both flanks of nu/nu nude mice 6 to 8 weeks old. […] The mice were assigned to the treatment group or the control group (5 mice per group having 8 to 10 assessable tumours) by randomization.
(§5) The size of the tumours was measured in two dimensions by means of a slide gauge. The tumour volume which correlated well with the cell count, was then used for all assessments. The volume was calculated according to the formula “length×breadth×breadth/2” ([a×b^2]/2; a and b representing two diameters arranged at right angles).
(§6) The values of the relative tumour volume (RTV) were calculated for each individual tumour by dividing the tumour size on day X with the tumour size on day 0 (at the time of randomization). The average values of the RTV were then used for the further assessment.
(§7) The inhibition of the increase of the tumour volume (tumour volume of the test group/control group, T/C, in percent) was the final measured value.
The compounds are dissolved in 1% aqueous dextrose solution and administered intravenously from day 1–3 and day 15–17.

For series [5], the target named is T1, αvβ3 receptor (αvβ3 from human A375 cells) (Homo sapiens, UniProt P05106+P06756).
T1 construct: αvβ3 from human A375 cells was purified analogously to a procedure described by Wong et al; endogenous in cells; host or cells: human A375 cells (endogenous receptor, detergent-solubilised and purified)
T1 sequence (P06756 31-889 limits assumed): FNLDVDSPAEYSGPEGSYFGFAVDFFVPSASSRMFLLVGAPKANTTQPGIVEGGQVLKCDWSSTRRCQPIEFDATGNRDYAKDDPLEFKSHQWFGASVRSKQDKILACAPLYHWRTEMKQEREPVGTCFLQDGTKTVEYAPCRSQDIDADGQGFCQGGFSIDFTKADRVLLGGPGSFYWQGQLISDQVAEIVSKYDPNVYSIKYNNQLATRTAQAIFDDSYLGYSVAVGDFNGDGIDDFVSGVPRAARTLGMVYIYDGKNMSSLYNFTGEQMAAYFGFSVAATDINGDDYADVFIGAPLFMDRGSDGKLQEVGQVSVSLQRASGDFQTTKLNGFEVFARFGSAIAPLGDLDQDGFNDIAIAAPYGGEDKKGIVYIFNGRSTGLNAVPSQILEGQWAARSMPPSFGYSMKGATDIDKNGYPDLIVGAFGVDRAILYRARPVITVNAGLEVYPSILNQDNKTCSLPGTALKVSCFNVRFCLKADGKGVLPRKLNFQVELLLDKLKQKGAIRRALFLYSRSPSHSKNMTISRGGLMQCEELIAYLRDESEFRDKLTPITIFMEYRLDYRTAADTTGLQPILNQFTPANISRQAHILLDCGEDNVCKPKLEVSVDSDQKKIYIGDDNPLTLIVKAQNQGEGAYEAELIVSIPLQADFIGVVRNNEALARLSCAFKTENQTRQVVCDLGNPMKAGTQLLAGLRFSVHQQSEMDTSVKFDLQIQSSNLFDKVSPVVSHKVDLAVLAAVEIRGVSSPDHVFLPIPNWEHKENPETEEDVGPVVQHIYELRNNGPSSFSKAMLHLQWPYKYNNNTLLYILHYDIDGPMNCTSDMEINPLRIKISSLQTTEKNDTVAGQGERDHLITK
T1 sequence (P06756 891-1048 partner limits assumed): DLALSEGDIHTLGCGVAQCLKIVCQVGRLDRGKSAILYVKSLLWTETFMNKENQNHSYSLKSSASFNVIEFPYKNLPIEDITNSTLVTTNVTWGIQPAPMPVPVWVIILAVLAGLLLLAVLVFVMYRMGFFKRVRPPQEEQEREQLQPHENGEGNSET
T1 sequence (P05106 27-788): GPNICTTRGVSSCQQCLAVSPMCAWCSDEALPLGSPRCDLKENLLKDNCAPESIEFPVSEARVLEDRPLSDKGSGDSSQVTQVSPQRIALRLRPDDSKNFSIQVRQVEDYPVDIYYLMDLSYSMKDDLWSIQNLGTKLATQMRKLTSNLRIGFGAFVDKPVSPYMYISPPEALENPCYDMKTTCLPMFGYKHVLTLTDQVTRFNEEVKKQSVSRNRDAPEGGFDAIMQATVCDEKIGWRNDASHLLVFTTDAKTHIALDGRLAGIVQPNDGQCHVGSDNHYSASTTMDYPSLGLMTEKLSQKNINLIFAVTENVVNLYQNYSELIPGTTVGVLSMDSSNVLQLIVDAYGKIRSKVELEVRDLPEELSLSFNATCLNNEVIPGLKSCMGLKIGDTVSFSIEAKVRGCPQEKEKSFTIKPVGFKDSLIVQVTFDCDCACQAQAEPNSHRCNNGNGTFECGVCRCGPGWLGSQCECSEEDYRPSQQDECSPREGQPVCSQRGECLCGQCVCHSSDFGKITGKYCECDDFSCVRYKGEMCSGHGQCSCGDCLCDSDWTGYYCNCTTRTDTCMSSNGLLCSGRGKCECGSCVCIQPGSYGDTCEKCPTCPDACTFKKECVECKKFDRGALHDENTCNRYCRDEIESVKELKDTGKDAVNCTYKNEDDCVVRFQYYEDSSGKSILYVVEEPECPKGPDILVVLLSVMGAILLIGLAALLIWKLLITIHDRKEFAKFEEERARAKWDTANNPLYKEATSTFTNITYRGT
Kind of series: αvβ3 binding test (echistatin displacement, SPA). Conditions: read-out: IC50 values of the binding to the αVβ3 receptor. As to the method: αvβ3 from human A375 cells was purified analogously to a procedure described by Wong et al. in Molecular Pharmacology 50, 529–537 (1996). In each case, 10 μL of αvβ3 (5 ng) in TBS pH 7.6, 2 mM CaCl2, 1 mM MgCl2, 1% n-octylglucopyranoside (Sigma); 10 μL of test substance in TBS pH 7.6, 0.1% DMSO and 45 μL of TBS pH 7.6, 2 mM CaCl2, 1 mM MgCl2, 1 mM MnCl2 were incubated at room temperature for 1 h. In each case, 25 μL of WGA SPA beads (Amersham, 4 mg/ml) and 10 μL of echistatin (0.1 μCi, Amersham, chloramine-T labelled) were then added. After 16 h at room temperature, the samples were measured in a scintillation measuring apparatus (Wallac 1450).

For series [6], the system named is hemopoietic stem cells (bone marrow cells). Kind of series: cells. The series is classed as cell-based, mice. As to the method:
Bone marrow cells are flushed out of the femur of mice. 10^5 cells are incubated in McCoy 5A medium (0.3% agar) together with recombinant murine GM-CSF (Genzyme; parent cell colony formation) and the substances (10^−4 to 100 μg/ml) at 37° C. and 7% CO2. 7 days later, the colonies (<50 cells) and clusters (17–50 cells) are counted.

Series [7] deals with renal xenograft (RXF 944).
Text: as §3, §4, §5, §6, §7

Series [8] deals with melanoma xenograft (MEXF 989). The series is classed as in vivo, athymic nude mice (NMRI nu/nu strain).
The mark [9] stands for this setting: MX-1, 6 mg/kg/day intravenously day 1–3 and day 15–17.
The mark [10] stands for this setting: RXF 944, 6 mg/kg/day intravenously day 1–3 and day 15–17.
[11] abbreviates: MEXF 989, 6 mg/kg/day intravenously day 1–3 and day 15–17.

As to `CCCNC(=O)Nc1cccc(S(=O)(=O)Nc2cccc(C(CC(=O)O)NC(=O)Nc3ccc(NC(=S)N[C@@H](C)C(=O)N4CCC[C@H]4C(=O)N[C@H](C(=O)O[C@]4(CC)C(=O)OCc5c4cc4n(c5=O)Cc5cc6ccccc6nc5-4)C(C)C)cc3)c2)c1` (single isomer, unassigned) [Example 3], the pIC50 in series [1] was 6.15; in series [2] it was 6.82; in series [3] it was 6.30; in series [5] it was 7.82. Besides, the lethality is 0/5 in series [4] (setting [9]), 1/7 in series [7] (setting [10]) and 0/5 in series [8] (setting [11]). The figures for the “optimal T/C” value in series [4] (setting [9]), in series [7] (setting [10]) and in series [8] (setting [11]) were 12.4%, 24.0% and 10.3%, respectively. The “inhibition of the tumour growth (in words)” value in series [4] (MX-1, intravenously day 1–3 and day 15–17) is recorded as “effected inhibitions of the tumour growth”; in series [7] (RXF 944, intravenously day 1–3 and day 15–17) it was “effected inhibitions of the tumour growth”; in series [8] (MEXF 989, intravenously day 1–3 and day 15–17), “effected inhibitions of the tumour growth”. Further, the “toxicity against stem cells in vitro compared to camptothecin (in words)” value in series [6] is “drastically reduced toxicity against stem cells in vitro compared to camptothecin”.
